Results reported in patent US12485106B2, “Methods of treating fibrotic liver diseases or conditions with indeglitazar” (PLEIOGENIX INC., priority 2023, dated 2025).

How the values were obtained:
[1] = test system: adiponectin gene expression; conditions: compared with full PPAR γ-agonists like pioglitazone; cited from earlier work
[2] = test system: carbon tetrachloride (CCl4)-treated mice model of human NAFLD, NASH, and hepatic fibrosis; experiment: CCl4-treated mouse model of human NAFLD, NASH and hepatic fibrosis; assay type: in vivo; conditions: vs CCl4 vehicle
Source text: Mouse model generation and treatment. C57Bl/6 mice (6-week-old, males) were purchased from Jackson Laboratories and were housed under specific pathogen-free conditions. All experiment protocols were approved by the Institutional Animal Care and Use Committee (IACUC) of Pleiogenix, or its research partners. The mice were acclimated for a minimum of seven days prior to initiation of treatment (Sanyal A J et al., N Engl J Med, (2010), 362:1675-85). The mice were fed Purina normal chow and drinking water ad libitum during the acclimation period. After acclimation, the mice were randomized based on body weight (bw). A total of 22 mice were used; and treated as described in Table 1. Briefly, on day 0, mice were treated according to Table 4.
Liver fibrosis was induced as previously described (Nesto R W et al., Circulation, (2003), 108:2941-8). Carbon tetrachloride (CCl4), formulated in mineral oil, was administered twice per week i.p. at 1 μl/gram body weight throughout the study duration (8 wks). Indeglitazar was administered daily by oral gavage at 30 mg/kg body weight throughout the study duration (8 wks). Mice were observed daily for clinical signs. Any observations noted outside of the scheduled observations were documented as unscheduled. Assessments included, but were not be limited to, assessment of activity, posture, respiration, emesis, seizure, hydration status, injection site irritation, and overall body condition. The absence or presence of findings were recorded.
Individual body weights were recorded on all animals prior to the initiation of the study and weekly body weights were recorded. Blood was collected and plasma was measured for alanine aminotransferase (ALT) and aspartate aminotransferase (AST) and on weeks 0 (baseline), 4, and wk 8 (terminal). At the end of the study, liver necropsy was performed including weighing and processing for histology, and frozen at −80° C. for the following downstream analyses: Liver histopathology: hematoxyline and eosin (H&E) staining (Kumar P et al., PLOS ONE, (2014), 9:e110405); Sirius Red staining for fibrosis (Nesto R W et al., Circulation, (2003), 108:2941-8). Biochemical markers of human hepatic fibrosis and anti-fibrotic adipokine, adiponectin: hepatic hydroxyproline (Nesto R W et al., Circulation, (2003), 108:2941-8); plasma TGFβ1 (Fischer A H et al., CSH Protoc, (2008), 2008:pdb.prot4986); adiponectin (Guo J C et al., Zhonghua Shi Yan He Lin Chuang Bing Du Xue Za Zhi, (2008), 22:354-7).
[…]

[3] = 30 mg/kg/day oral gavage, 8 wks, male mice

COc1ccc(S(=O)(=O)n2cc(CCC(=O)O)c3cc(OC)ccc32)cc1 [Indeglitazar, 3-[5-methoxy-1-(4-methoxybenzenesulfonyl)-1H-indol-3-yl]-propanoic acid]
stimulating adiponectin gene expression [1]: only partially effective
effect on liver hydroxyproline [2, 3]: significantly reduces
effect on plasma TGF-β1 [2, 3]: significantly reduces
effect on plasma adiponectin [2, 3]: significantly increases
magnitude of increase of plasma adiponectin ([2]; 30 mg/kg/day): approximately 125%
magnitude of reduction of hydroxyproline ([2]; 30 mg/kg/day): approximately 25%
magnitude of reduction of plasma TGFβ1 ([2]; 30 mg/kg/day): approximately 30%
